# Where a name gives a salt, the structure may show the parent alone.
# What was measured:
# NLRP3 [1] = target: T1, NLRP3 (Homo sapiens, UniProt Q96P20); assay: Human whole blood IL1β release assay (LPS + nigericin, AlphaLisa IL-1β; HWB IC50); type: cell-based; parameters: Human whole blood in Li-heparin tubes was obtained from healthy donors from a volunteer donor panel; from tissue; host or cells: human whole blood from healthy donors; conditions: IL-1β release
# How it was run: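 Donor Li-heparin whole blood primed with 1 μg/ml LPS, given compound (8-point half-log series, 10 μM top; DMSO 0.1% final) for 3 h at 37 °C, then nigericin 10 μM final for 1 h. Supernatant IL-1β measured by AlphaLisa; IC50 from 4-parameter variable-slope fit.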
# NLRP3 [2] = target: T1, NLRP3; assay: THP-1 cells pyroptosis assay (LPS + nigericin, resazurin readout; THP IC50); type: cell-based; parameters: Seed THP-1 cells (25,000 cells/well) containing 1.0 μg/ml LPS in 40 μl of RPMI medium; host or cells: THP-1 cells
# How it was run: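 Human THP-1 cells, 25,000/well in serum-free RPMI with 1 μg/ml LPS, treated 3 hrs at 37° C with compound (8-point half-log, 10 μM top, 0.1% DMSO), then 5 μM nigericin 1 hr. Viability by 100 μM resazurin fluorescence after 1-2 hrs; IC50 by 4-parameter fit.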
# T1 sequence (Q96P20 whole entry): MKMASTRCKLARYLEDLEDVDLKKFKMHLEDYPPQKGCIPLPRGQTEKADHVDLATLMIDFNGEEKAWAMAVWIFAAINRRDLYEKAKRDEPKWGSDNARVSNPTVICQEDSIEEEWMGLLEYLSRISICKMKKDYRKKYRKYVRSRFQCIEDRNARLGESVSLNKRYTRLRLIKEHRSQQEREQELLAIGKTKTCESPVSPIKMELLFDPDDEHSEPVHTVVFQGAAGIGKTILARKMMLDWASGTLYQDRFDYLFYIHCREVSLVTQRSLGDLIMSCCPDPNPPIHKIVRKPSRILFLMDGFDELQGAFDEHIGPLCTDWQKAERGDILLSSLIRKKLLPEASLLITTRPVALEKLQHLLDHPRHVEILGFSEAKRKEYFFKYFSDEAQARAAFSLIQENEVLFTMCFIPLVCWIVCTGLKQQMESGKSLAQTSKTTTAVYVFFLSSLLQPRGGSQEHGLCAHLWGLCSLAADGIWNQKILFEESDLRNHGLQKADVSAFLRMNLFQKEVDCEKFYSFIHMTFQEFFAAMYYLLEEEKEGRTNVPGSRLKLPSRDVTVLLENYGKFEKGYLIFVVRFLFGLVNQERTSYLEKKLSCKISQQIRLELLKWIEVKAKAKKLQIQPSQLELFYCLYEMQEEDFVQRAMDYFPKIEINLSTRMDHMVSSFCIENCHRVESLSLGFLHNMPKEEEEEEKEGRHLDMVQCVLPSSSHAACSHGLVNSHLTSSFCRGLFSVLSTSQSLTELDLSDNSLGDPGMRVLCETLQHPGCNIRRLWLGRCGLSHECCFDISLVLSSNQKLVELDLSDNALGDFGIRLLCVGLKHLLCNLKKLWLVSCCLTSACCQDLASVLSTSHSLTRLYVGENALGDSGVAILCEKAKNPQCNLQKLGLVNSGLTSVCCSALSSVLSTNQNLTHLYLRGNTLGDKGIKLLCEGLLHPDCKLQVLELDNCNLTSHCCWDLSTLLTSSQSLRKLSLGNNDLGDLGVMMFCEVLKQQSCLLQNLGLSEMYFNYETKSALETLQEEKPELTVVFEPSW
Structure (SMILES),IC50 (NLRP3 [1]) [nM],IC50 (NLRP3 [2]) [nM]
"CNCc1cc(S(=O)(=O)NC(=O)Nc2c(-c3ccnc(OC)c3)ccc3c2CCC3)nn1C1CC1 [Example 190, 1-Cyclopropyl-N-((5-(2-methoxypyridin-4-yl)-2,3-dihydro-1H-inden-4-yl)carbamoyl)-5-((methylamino)methyl)-1H-pyrazole-3-sulfonamide, sodium salt]",≤ 500,≤ 500
"COc1cc(-c2ccc3c(c2NC(=O)NS(=O)(=O)c2cc(C4CCCN4C)n(C(C)C)n2)CCC3)ccn1 (stereo not shown) [Example 191, 1-Isopropyl-N-((5-(2-methoxypyridin-4-yl)-2,3-dihydro-1H-inden-4-yl)carbamoyl)-5-(1-methylpyrrolidin-2-yl)-1H-pyrazole-3-sulfonamide, sodium salt]",≤ 1000,≤ 500
"CCC(c1cc(S(=O)(=O)NC(=O)Nc2c(-c3ccnc(OC)c3)ccc3c2CCC3)nn1C(C)C)N(C)C (stereo not shown) [Example 192, 5-(1-(Dimethylamino)propyl)-1-isopropyl-N-((5-(2-methoxypyridin-4-yl)-2,3-dihydro-1H-inden-4-yl)carbamoyl)-1H-pyrazole-3-sulfonamide]",≤ 500,≤ 500
"COc1cc(-c2ccc3c(c2NC(=O)NS(=O)(=O)c2cc(CN(C)C)n(C(C)C)n2)CCC3)ccn1 [Example 193, 5-((Dimethylamino)methyl)-1-isopropyl-N-((5-(2-methoxypyridin-4-yl)-2,3-dihydro-1H-inden-4-yl)carbamoyl)-1H-pyrazole-3-sulfonamide]",≤ 500,≤ 500
"CC(C)(C#N)n1ccc(S(=O)(=O)NC(=O)Nc2c(-c3ccnc(OC(F)F)c3)ccc3c2CCO3)n1 [Example 195, 1-(2-Cyanopropan-2-yl)-N-((5-(2-(difluoromethoxy)pyridin-4-yl)-2,3-dihydrobenzofuran-4-yl)carbamoyl)-1H-pyrazole-3-sulfonamide]",≤ 500,≤ 500
"COc1cc(-c2ccc3c(c2NC(=O)NS(=O)(=O)c2ccn(C(C)(C)C#N)n2)CCO3)ccn1 [Example 196, 1-(2-Cyanopropan-2-yl)-N-((5-(2-methoxypyridin-4-yl)-2,3-dihydrobenzofuran-4-yl)carbamoyl)-1H-pyrazole-3-sulfonamide]",≤ 500,≤ 500
"CNCC(C)(C)n1ccc(S(=O)(=O)NC(=O)Nc2c(-c3ccnc(OC)c3)ccc3c2CCC3)n1 [Example 197, N-((5-(2-Methoxypyridin-4-yl)-2,3-dihydro-1H-inden-4-yl)carbamoyl)-1-(2-methyl-1-(methylamino)propan-2-yl)-1H-pyrazole-3-sulfonamide, sodium salt]",≤ 500,≤ 500
"CN(C)CC(C)(C)n1ccc(S(=O)(=O)NC(=O)Nc2c(-c3ccnc(OC4CC4)c3)ccc3c2CCO3)n1 [Example 198, N-((5-(2-Cyclopropoxypyridin-4-yl)-2,3-dihydrobenzofuran-4-yl)carbamoyl)-1-(1-(dimethylamino)-2-methylpropan-2-yl)-1H-pyrazole-3-sulfonamide, sodium salt]",≤ 500,≤ 500
"COc1cc(-c2ccc3c(c2NC(=O)NS(=O)(=O)c2ccn(C4CCN(C)C4)n2)CCC3)ccn1 (stereo not shown) [Example 199, N-((5-(2-Methoxypyridin-4-yl)-2,3-dihydro-1H-inden-4-yl)carbamoyl)-1-(1-methylpyrrolidin-3-yl)-1H-pyrazole-3-sulfonamide, sodium salt]",≤ 500,≤ 500
"CN(C)CC(C)(C)n1ccc(S(=O)(=O)NC(=O)Nc2c(-c3ccnc(OC4CC4)c3)ccc3c2CCC3)n1 [Example 200, N-((5-(2-Cyclopropoxypyridin-4-yl)-2,3-dihydro-1H-inden-4-yl)carbamoyl)-1-(1-(dimethylamino)-2-methylpropan-2-yl)-1H-pyrazole-3-sulfonamide, sodium salt]",≤ 500,≤ 500
"COc1cc(-c2ccc3c(c2NC(=O)NS(=O)(=O)c2ccn(C(C)(C)C#N)n2)CCC3)ccn1 [Example 201, 1-(2-Cyanopropan-2-yl)-N-((5-(2-methoxypyridin-4-yl)-2,3-dihydro-1H-inden-4-yl)carbamoyl)-1H-pyrazole-3-sulfonamide, sodium salt]",≤ 500,≤ 500
"CN(C)CC(C)(C)n1ccc(S(=O)(=O)NC(=O)Nc2c(-c3ccnc(C#N)c3)ccc3c2CCC3)n1 [Example 202, N-((5-(2-Cyanopyridin-4-yl)-2,3-dihydro-1H-inden-4-yl)carbamoyl)-1-(1-(dimethylamino)-2-methylpropan-2-yl)-1H-pyrazole-3-sulfonamide]",≤ 500,≤ 500
"CN(C)CC(C)(C)n1ccc(S(=O)(=O)NC(=O)Nc2c(-c3cccnc3)ccc3c2CCC3)n1 [Example 203, 1-(1-(Dimethylamino)-2-methylpropan-2-yl)-N-((5-(pyridin-3-yl)-2,3-dihydro-1H-inden-4-yl)carbamoyl)-1H-pyrazole-3-sulfonamide]",≤ 500,≤ 500
"CC(C)n1ccc(S(=O)(=O)NC(=O)Nc2c(-c3cccnc3)cc(F)c3c2CCC3)n1 [Example 206, N-((7-Fluoro-5-(pyridin-3-yl)-2,3-dihydro-1H-inden-4-yl)carbamoyl)-1-isopropyl-1H-pyrazole-3-sulfonamide]",≤ 5000,≤ 500
"CC(C)n1ccc(S(=O)(=O)NC(=O)Nc2c(-c3cccnc3)ccc3ccccc23)n1 [Example 207, 1-Isopropyl-N-((2-(pyridin-3-yl)naphthalen-1-yl)carbamoyl)-1H-pyrazole-3-sulfonamide]",≤ 5000,≤ 1000
"COc1cc(-c2ccc3ccccc3c2NC(=O)NS(=O)(=O)c2ccn(C(C)C)n2)ccn1 [Example 209, 1-Isopropyl-N-((2-(2-methoxypyridin-4-yl)naphthalen-1-yl)carbamoyl)-1H-pyrazole-3-sulfonamide]",≤ 5000,≤ 500
"COc1cc(-c2cc(F)cc(C3CC3)c2NC(=O)NS(=O)(=O)c2ccn(C(C)C)n2)ccn1 [Example 210, N-((2-Cyclopropyl-4-fluoro-6-(2-methoxypyridin-4-yl)phenyl)carbamoyl)-1-isopropyl-1H-pyrazole-3-sulfonamide]",≤ 5000,≤ 500
"COc1cc(-c2cc(F)cc(C3CCCC3)c2NC(=O)NS(=O)(=O)c2ccn(C(C)C)n2)ccn1 [Example 211, N-((2-Cyclopentyl-4-fluoro-6-(2-methoxypyridin-4-yl)phenyl)carbamoyl)-1-isopropyl-1H-pyrazole-3-sulfonamide]",≤ 5000,≤ 500
"COc1cc(-c2ccc3c(c2NC(=O)NS(=O)(=O)c2ccn(C(C)C)n2)CCCC3)ccn1 [Example 213, 1-Isopropyl-N-((2-(2-methoxypyridin-4-yl)-5,6,7,8-tetrahydronaphthalen-1-yl)carbamoyl)-1H-pyrazole-3-sulfonamide]",≤ 5000,≤ 500
"CCOc1cc(-c2ccc3c(c2NC(=O)NS(=O)(=O)c2ccn(C(C)C)n2)CCC3)ccn1 [Example 214, N-((5-(2-Ethoxypyridin-4-yl)-2,3-dihydro-1H-inden-4-yl)carbamoyl)-1-isopropyl-1H-pyrazole-3-sulfonamide]",≤ 1000,≤ 500
"CC(C)n1ccc(S(=O)(=O)NC(=O)Nc2c(-c3ccnc(C#N)c3)ccc3c2CCC3)n1 [Example 215, N-((5-(2-Cyanopyridin-4-yl)-2,3-dihydro-1H-inden-4-yl)carbamoyl)-1-isopropyl-1H-pyrazole-3-sulfonamide]",≤ 500,≤ 500
"CC(C)Oc1cc(-c2ccc3c(c2NC(=O)NS(=O)(=O)c2ccn(C(C)C)n2)CCC3)ccn1 [Example 216, N-((5-(2-Isopropoxypyridin-4-yl)-2,3-dihydro-1H-inden-4-yl)carbamoyl)-1-isopropyl-1H-pyrazole-3-sulfonamide]",≤ 5000,≤ 500
"CC(C)n1ccc(S(=O)(=O)NC(=O)Nc2c(-c3cc[nH]c(=O)c3)ccc3c2CCC3)n1 [Example 218, 1-Isopropyl-N-((5-(2-oxo-1,2-dihydropyridin-4-yl)-2,3-dihydro-1H-inden-4-yl)carbamoyl)-1H-pyrazole-3-sulfonamide]",≤ 1000,≤ 500
"COc1cc(-c2ccc3c(c2NC(=O)NS(=O)(=O)c2ccn(C(C)(C)CN4CCC4)n2)CCC3)ccn1 [Example 219, 1-(1-(Azetidin-1-yl)-2-methylpropan-2-yl)-N-((5-(2-methoxypyridin-4-yl)-2,3-dihydro-1H-inden-4-yl)carbamoyl)-1H-pyrazole-3-sulfonamide]",≤ 500,≤ 500
"N#Cc1cc(-c2ccc3c(c2NC(=O)NS(=O)(=O)c2ccn(C4CC4)n2)CCC3)ccn1 [Example 222, N-((5-(2-Cyanopyridin-4-yl)-2,3-dihydro-1H-inden-4-yl)carbamoyl)-1-cyclopropyl-1H-pyrazole-3-sulfonamide, sodium salt]",≤ 500,≤ 500
"CC(C)n1ccc(S(=O)(=O)NC(=O)Nc2c(-c3ccnc(C#N)c3)cc(Cl)c3c2CCC3)n1 [Example 225, N-((7-Chloro-5-(2-cyanopyridin-4-yl)-2,3-dihydro-1H-inden-4-yl)carbamoyl)-1-isopropyl-1H-pyrazole-3-sulfonamide, sodium salt]",≤ 5000,≤ 500

# Reference: patent US20200361895A1, “NOVEL SULFONAMIDE CARBOXAMIDE COMPOUNDS” (Inflazome Limited, priority 2017, published 2020)
